The text below walks through data of US20080235828A1 (University of Manitoba, priority 2004, published 2008).

In one experiment the target is ABAP1 (Hordeum vulgare, UniProt Q9LLX3). The experiment can be described thus: ABA binding assay with purified recombinant ABAP1. Further details: species or system barley. As to conditions: analogs/precursors added at the same time as 3H+-ABA at different concentrations (20-5000). As for the experimental part: Other additions or changes to the incubation system are discussed in the figure legends. All binding assays were carried out at a final volume of 150 μL at 4° C. for 1 hour. The mixture was then rapidly filtered through a nitrocellulose membrane, washed with 5 mL, of cold 0.5× binding buffer by rapid filtration, dried in air and counted in a scintillation counter (Wallac 1414 WinSpectral v1.40). […] The DCC binding mixture was maintained for 15 minutes on ice before centrifugation to precipitate DCC. The resulted supernatant was then counted in a scintillation counter to determine the binding activity. […] Heat denatured ABAP1 protein was used to determine the protein nature of the ABAP1 and BSA was used as a control. All binding studies were carried out using three different protein purifications with triplicate assays for each purification. […] Binding was represented as the number of moles of ^3H^+-ABA per mole of ABAP1 protein.

A further experiment has as its system em promoter. The experiment can be described thus: em promoter driven GUS expression in bombarded barley aleurone layers. Type of experiment: cell-based. To be noted: in the presence of the added substance. From the text:
The studies examined the effector and reporter constructs, at a 1:1 ratio, introduced to barley aleurone layers by gold particle bombardment. The bombardment consisted of two trials: the first trial was a bombardment of em promoter only; the second trial was a bombardment of em promoters treated with ABAP1.

In another experiment the test system is α-amylase activity. The experiment can be described thus: α-amylase activity in bombarded barley aleurones. Type of experiment: cell-based. To be noted: em and ABAP1 bombarded aleurones.
Another experiment deals with T1, FCA protein (Arabidopsis thaliana, UniProt O04425).
T1 sequence (O04425 1-747 isoform O04425-1): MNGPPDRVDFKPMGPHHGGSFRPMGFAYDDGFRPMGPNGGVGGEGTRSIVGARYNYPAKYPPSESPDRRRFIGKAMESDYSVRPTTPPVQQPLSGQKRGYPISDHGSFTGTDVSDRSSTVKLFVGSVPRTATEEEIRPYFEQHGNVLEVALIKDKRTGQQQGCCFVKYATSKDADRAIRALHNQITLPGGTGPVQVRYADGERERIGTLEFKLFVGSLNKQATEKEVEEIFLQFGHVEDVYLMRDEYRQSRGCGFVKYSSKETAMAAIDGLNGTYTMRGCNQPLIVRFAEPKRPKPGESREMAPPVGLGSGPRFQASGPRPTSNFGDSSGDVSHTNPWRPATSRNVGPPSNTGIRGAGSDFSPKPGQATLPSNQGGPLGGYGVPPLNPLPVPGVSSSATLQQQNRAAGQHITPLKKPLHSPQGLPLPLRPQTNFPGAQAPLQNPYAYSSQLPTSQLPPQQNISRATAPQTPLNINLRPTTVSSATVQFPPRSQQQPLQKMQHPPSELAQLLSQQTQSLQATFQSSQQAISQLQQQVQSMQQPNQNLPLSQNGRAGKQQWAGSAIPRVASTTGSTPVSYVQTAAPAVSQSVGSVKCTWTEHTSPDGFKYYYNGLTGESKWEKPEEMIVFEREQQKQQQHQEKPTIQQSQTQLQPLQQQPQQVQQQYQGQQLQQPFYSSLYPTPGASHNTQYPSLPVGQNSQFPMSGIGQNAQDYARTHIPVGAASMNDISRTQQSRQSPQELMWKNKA
The experiment can be described thus: ABA binding assay with purified recombinant FCA. To be noted: analog added in higher concentrations than 3H+-ABA (20-5000 nM). Further details: Kd; other: analog added in higher concentrations than 3H+-ABA (20-5000 nM); other: Scatchard analysis, r^2=0.88; other: in presence of 5 μM unlabelled (+)-ABA; pH range of maximum; fused on or other part: GST fused on for purification. As to the method:
[…] The mixture was then rapidly filtered through a nitrocellulose membrane, washed with 0.5× binding buffer, air dried and counted in a scintillation counter (Wallac 1414 WinSpectral v1.40). Heat denatured FCA protein was used to used determine the protein nature of the FCA and BSA was used as a control. All binding studies were carried out using three different GST affinity chromatography protein purifications with triplicate assays for each purification. […] Specific binding was calculated by taking the difference for assays with only ^3H^+-ABA (total binding) and assays that also contained 5 μM (±)-ABA added at the same time as ^3H^+-ABA (non-specific binding). Binding was represented as the number of moles of ^3H^+-ABA per mole of FCA protein.

The subject of a further experiment is FCA/FY interaction. The experiment can be described thus: GST pull-down of FCA/FY interaction in the presence of ABA. It is filed as binding, Arabidopsis. As to conditions: FCA pre-bound with ABA for 30 min. As for the experimental part:
All in vitro translation and GST pull-down assays were carried out as described by supplier's protocols (Promega, Madison, Wis.) with modifications^S and as follows. For GST in vitro pull-down assays, 15 μL GST affinity resin was incubated with 250 μL FCA clear lysate, pelleted and the complex blocked and washed with IP buffer as described^S. For the determination of the amount of FCA bound to GST resin, the pellet was resuspended with 200 μL of 15 mM GSH to elute FCA and the supernatant was recovered by centrifugation. FY protein to be tested for interaction with the GST-FCA fusion protein was synthesized from a plasmid template and labeled with [^35S]-methionine using the T7 TNT coupled Transcription/Translation System (Promega). Twenty μL of FY labeled protein and 180 μL of interaction buffer (12.5 mM Tris-HCl, pH 7.3 containing 5 mM KCl, 1 mM MgCl2, and 100 mM NaCl) were used to resuspend the GST:FCA after the final wash. The protein binding/interaction reaction was carried out for 90 minutes at 4° C. with continuous gentle mixing. The newly formed complex was then washed three times with 500 μL of IP wash buffer. After the final wash, the complex was resuspended, first with 10 μL of 1 5 mM GSH to facilitate the dissociation of interacted proteins from GST resin and then 10 μL of 2×SDS-PAGE sample buffer was added to the mixture and boiled for 5 minutes for complete elution of the proteins from the agarose beads. The beads were pelleted by centrifugation and supernatant was loaded on a 12% SDS-PAGE gel. The gel was dried and exposed to Kodak X-ray film for 18 hours at −70° C. and film was developed for the detection of labelled proteins.
FCA was bound with […] for 30 minutes at which time the FCA/FY translated product was added to the incubation mixture. The interaction between FCA/FY was carried out in the presence of either (−)- or (+)-ABA in binding buffer as described above. Released proteins were separated on SDS-PAGE and labelled proteins were detected as described above. FCA-WW-FY was used as a control.

A short description of experiment [1]: ABA binding of ABAP1 trypsin fragments. The arrangement: species or system barley. As to conditions: for ABA binding molar ratio / affinity: trypsin fragments compared with full-length ABAP1. An excerpt: It is to be noted that the nucleotide fragment sequence SEQ ID NO: 12 corresponds to nucleotides 350 through 951 of the nucleotide sequence listing set forth in SEQ ID NO: 9, and that the amino acid sequence SEQ ID NO: 11 encoded by the nucleotide fragment sequence SEQ ID NO: 12 corresponds to amino acids 112 though 309 of the ABAP1 protein (SEQ. ID NO: 10). Mutation analysis can be used to determine the specific residues involved in […] binding. Those skilled in these arts will understand that the ABA-binding capacity within a recipient plant tissue or seed can be modulated by constructing a nucleotide molecule by first fusing the T-20 coding sequence (SEQ ID NO: 12) with a suitable regulatory nucleotide sequence selected for over-expression or for under-expression of the T-20 coding sequence, then stably introducing the T-20 nucleotide molecule into the genome of a recipient cell from a seed-producing plant, culturing the recipient cell into a functional whole plant and then further propagating the plant to produce mature recipient seeds. A suitable forward […] for the T-20 coding sequence is set forth in the sequence listing identified as SEQ ID NO: 15. A suitable reverse primer for the T-20 coding sequence is set forth in the sequence listing identified as SEQ ID NO: 16.

“Also recorded” adds a separate entry of the source.

Sequence of ABAP1 (Q9LLX3 entry or part of it): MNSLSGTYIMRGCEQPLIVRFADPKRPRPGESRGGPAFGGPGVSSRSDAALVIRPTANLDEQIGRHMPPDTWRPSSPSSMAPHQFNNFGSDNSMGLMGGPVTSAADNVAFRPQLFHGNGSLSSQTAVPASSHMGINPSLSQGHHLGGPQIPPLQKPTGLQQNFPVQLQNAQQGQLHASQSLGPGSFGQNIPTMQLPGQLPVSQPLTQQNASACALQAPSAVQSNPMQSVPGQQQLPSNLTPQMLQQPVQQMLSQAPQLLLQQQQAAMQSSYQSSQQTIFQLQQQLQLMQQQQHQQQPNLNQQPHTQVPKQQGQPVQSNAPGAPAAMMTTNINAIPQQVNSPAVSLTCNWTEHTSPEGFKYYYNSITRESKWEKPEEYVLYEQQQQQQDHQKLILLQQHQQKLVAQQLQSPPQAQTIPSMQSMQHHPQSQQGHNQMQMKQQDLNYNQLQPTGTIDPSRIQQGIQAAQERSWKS
Experimental for α-amylase activity: A similar experiment was conducted with α-amylase activity to confirm if ABAP1 is involved in another signal transduction pathway. α-amylase activity was measured after ABA, PBI51 and GA were added to the em and ADAPT bombarded barley aleurones.

For the molecule `CC1=CC(=O)CC(C)(C)[C@@]1(O)/C=C/C(C)=C\CO` [(+) ABA-alcohol], the “displacement of 3H+-ABA bound to ABAP1 (competition)” value (shortened to “displacement of 3H+-ABA bound”) at ABAP1 was “able to displace”; at ABAP1 (listed as ABA alcohol) it was “did competitively inhibit binding of ABA to ABAP1 to some extent”.

Consider `CC1=CC(=O)CC(C)(C)[C@@]1(O)/C=C/C(C)=C\C=O` [(+) ABA-aldehyde], for which the entries for the “displacement of 3H+-ABA bound” value at ABAP1 and at ABAP1 (listed as ABA aldehyde) were “able to displace” and “did competitively inhibit binding of ABA to ABAP1 to some extent”, respectively.

With `CC1=CC(=O)CC(C)(C)[C@@]1(O)/C=C/C(C)=C\C(=O)O[C@@H]1O[C@H](CO)[C@@H](O)[C@H](O)[C@H]1O` [ABA-GE, (+) abscisic acid-glucose ester], the “displacement of 3H+-ABA bound” value on ABAP1 was “incapability”.

In the case of `CC(=C/C(=O)O)/C=C/[C@]1(O)[C@@]2(C)CO[C@]1(C)C[C@@H](O)C2` [DPA, dihydrophaseic acid], the “displacement of 3H+-ABA bound” value on ABAP1 is on record as “incapability”.

On to `C=C1C[C@]23C[C@@]1(O)CC[C@H]2[C@@]12C=C[C@H](O)[C@@](C)(C(=O)O1)[C@H]2[C@@H]3C(=O)O` [GA, gibberellic acid], for which the “activation of the em promoter by ABAP1” value in the experiment on em promoter is given as “reduced”. Also, in the experiment with α-amylase activity, the α-amylase activity result is recorded as “did not affect any reduction”.

For `CC(=C/C(=O)O)/C=C/[C@]1(O)[C@@]2(C)CO[C@]1(C)CC(=O)C2` [PA, phaseic acid], the “displacement of 3H+-ABA bound” value at ABAP1 is reported as “incapability”.

For the molecule `C/C(C#C[C@]1(O)[C@H](C)CC(=O)CC1(C)C)=C/CO` [PBI51], the “activation of the em promoter by ABAP1” value with em promoter is “reduced”. In the experiment with α-amylase activity, the α-amylase activity result is listed as “decreased”.

As to `CC(C=CC1(O)C(C)=CC(=O)CC1(C)C)=CC(=O)O` (stereo not drawn) [trans-ABA], on FCA protein, the “displacement of 3H+-ABA binding to FCA” value was “Virtually no or very little displacement”. For the same molecule, the “displacement of 3H+-ABA bound” value on ABAP1 is listed as “incapability; also recorded: neither (−)-ABA nor trans-ABA compete”.

Regarding (−)-ABA, the “displacement of 3H+-ABA binding to FCA” value at FCA protein is reported as “Virtually no or very little displacement”. For the same molecule, in the experiment on FCA/FY interaction, the “inhibition of FCA/FY interaction” value was “did not significantly inhibit”. The “displacement of 3H+-ABA bound” value is “neither (−)-ABA nor trans-ABA compete” at ABAP1 and “incapability” on ABAP1 (listed as (−) ABA).

B1: 10 kDa fragment: trypsin fragment of ABAP1 containing HR2 only, SEQ ID NO: 13 (protein)
chain: SAVQSNPMQSVPGQQQLPSNLTPQMLQQPVQQMLSQAPQLLLQQQQAAMQSSYQSSQQTIFQLQQQLQLMQQQQHQQQPNLNQQPHTQVPK
modifications: Hordeum, vulgare subsp. vulgare
As for B1, in experiment [1], the “ABA-binding affinity relative to 20 kDa fragment and full-length protein” value is on record as “less than 50%”; the “ABA binding molar ratio / affinity” value is “slight binding affinity”.

B2: 20 kDa fragment: trypsin fragment of ABAP1 with HR1 and HR2 regions, SEQ ID NO: 11 (protein)
chain: PQLFHGNGSLSSQTAVPASSHMGINPSLSQGHHLGGPQIPPLQKPTGLQQNFPVQLQNAQQGQLHASQSLGPGSFGQNIPTMQLPGQLPVSQPLTQQNASACALQAPSAVQSNPMQSVPGQQQLPSNLTPQMLQQPVQQMLSQAPQLLLQQQQAAMQSSYQSSQQTIFQLQQQLQLMQQQQHQQQPNLNQQPHTQVPK
modifications: Hordeum, vulgare subsp. vulgare
For B2, the “ABA binding molar ratio / affinity” value in experiment [1] is listed as “about the same molar ratio”.
